In US5534517A, “(Aryl(alkyl)carbonyl)-heterocyclic compounds and their use in the treatment of anxiety and depression” (Adir Et Compagnie, priority 1993, dated 1996):
Where two headings read alike, the source gives them in different places.

Key:
[1] = molecular target: T1, 5-HT2 serotoninergic receptors (Rattus norvegicus, UniProt P14842); test: in-vitro affinity for 5-HT2 serotoninergic receptors, by measuring the displacement of aminoiodoketanserin, on rat frontal cortex preparations; settings: read-out: IC50 (concentration inhibiting binding of the labelled ligand by 50%) (converted)
T1 construct: on rat frontal cortex preparations; from tissue; host or cells: rat frontal cortex
T1 sequence (P14842 whole entry): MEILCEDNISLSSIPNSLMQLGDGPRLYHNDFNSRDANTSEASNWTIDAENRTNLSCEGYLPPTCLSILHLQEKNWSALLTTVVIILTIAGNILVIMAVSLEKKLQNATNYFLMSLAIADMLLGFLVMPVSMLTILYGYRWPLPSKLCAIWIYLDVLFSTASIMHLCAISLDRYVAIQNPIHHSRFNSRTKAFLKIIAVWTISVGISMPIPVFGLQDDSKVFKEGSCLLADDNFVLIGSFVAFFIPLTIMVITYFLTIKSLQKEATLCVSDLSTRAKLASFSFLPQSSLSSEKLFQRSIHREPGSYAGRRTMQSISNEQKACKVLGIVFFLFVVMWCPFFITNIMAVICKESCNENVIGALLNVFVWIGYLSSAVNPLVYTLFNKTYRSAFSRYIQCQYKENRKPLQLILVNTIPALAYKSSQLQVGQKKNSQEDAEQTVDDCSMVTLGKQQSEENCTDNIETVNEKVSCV
Protocol: The in-vitro affinity of the compounds of the invention was determined
for 5-HT2 serotoninergic receptors, by measuring the displacement of aminoiodoketanserin, on rat frontal cortex preparations, […]

[2] = parameters: species or system Rats or mice; settings: in vivo

Structure (SMILES): O=C(c1ccc(F)cc1)C1CCN(CCn2c(=O)sc3ccccc32)CC1 [Example 1, 3-{2-[4-(4-FLUOROBENZOYL)PIPERIDINO]ETHYL}BENZOTHIAZOLIN-2-ONE]
- IC50 [1]: 1 nM

Structure (SMILES): COc1ccccc1N1CCN(CCCCc2ccc3c(c2)sc(=O)n3CCN2CCC(C(=O)c3ccc(F)cc3)CC2)CC1 [Example 3, 3-{2-[4-(4-FLUOROBENZOYL)PIPERIDINO]ETHYL}-6-(4-[4-(2-METHOXY-PHENYL)PIPERAZINYL]BUTYL}BENZOTHIAZOLIN-2-ONE]
- IC50 [1]: 1 nM

Structure (SMILES): O=C(c1ccc(F)cc1)C1CCN(CCn2c(=O)sc3cc(CCCCN4CCOCC4)ccc32)CC1 [Example 4, 3-{2-[4-(4-FLUOROBENZOYL)PIPERIDINO]ETHYL}-6-(4-MORPHOLINOBUTYL)BENZOTHIAZOLIN-2-ONE]
- IC50 [1]: 0.5 nM

Structure (SMILES): Cn1c(=O)sc2cc(CCN3CCC(C(=O)c4ccc(F)cc4)CC3)ccc21 [Example 48, 3-METHYL-6-{2-[4-(4-FLUOROBENZOYL)PIPERIDINO]ETHYL}BENZOTHIAZOLIN-2-ONE]
- inhibition of reaction time which the animal takes to lick its paws [2]: 175%

Structure (SMILES): CN1CC[C@]23c4c5ccc(O)c4O[C@H]2[C@@H](O)C=C[C@H]3[C@H]1C5 [morphine, reference compound]
- inhibition of reaction time which the animal takes to lick its paws ([2]; ip): 129%
